Measurements as given in patent publication US20260356804A1, “SODIUM CHANNEL BLOCKING COMPOUNDS, DERIVATIVES THEREOF, AND METHODS OF THEIR USE” (LATIGO BIOTHERAPEUTICS, INC., priority 2022, published 2026).
Where two headings read alike, the source gives them in different places.

Molecular target: T1, human Nav1.8/β1 (Homo sapiens, UniProt Q9Y5Y9)
T1 construct: host or cells: HEK293
Assay: Compound Profiling Human NaV1.8/β1 Cell Line—Sophion QPatch II Assay (automated patch clamp, stably transfected HEK293 cells)
Format: cell-based
Experimental: Compounds were tested on recombinant human Nav1.8/β1 stably transfected HEK293 (Eurofins, CYL3025, St. Charles, MO) cells using the QPatch II system (Sophion Bioscience A/S, Ballerup—Denmark), an automated patch clamp device. Cells were cultured at 37° C./5% CO2 in DMEM/F-12 supplemented with 10% fetal bovine serum, 1× Non-Essential Amino Acids, and selection antibiotics (0.625 μg/mL Puromycin, 400 μg/mL Geneticin, and 100 μg/mL Hygromycin). One or two days prior to recording, cells were moved to a lower temperature 30° C./5% CO2 incubator to increase surface expression of the channels. On the day of the recordings, cells in culture dishes were washed twice with Ca^2+—Mg^2+ free DPBS and treated with Detachin (Genlantis, San Diego) for 3 minutes and then resuspended in Serum Free Medium (EX-CELL® ACF CHO Medium for Cell Culture (Sigma-Aldrich) supplemented with 0.04 mg/mL soybean trypsin Inhibitor and 25 mM HEPES (all components supplied by Sigma-Aldrich, St. Louis, MO) and allowed to recover for a minimum of 20 minutes in the onboard QStirrer. All experiments were performed at ambient temperature. Intracellular solution contained (mM): CsCl, 50; CsF, 90; MgCl2, 2; EGTA, 5; HEPES, 10; pH adjusted to 7.2 with CsOH. Extracellular solution contained (mM): NaCl, 137; KCl, 4; CaCl2), 3.8; MgCl2, 1; HEPES, 10; Glucose, 10; pH adjusted to 7.4 with NaOH. [LEFT OUT].
Compounds were tested in an interleaved manner across two cohorts of wells to develop an aggregate 8-point concentration response curve. Final concentrations include 0.1% DMSO and 0.03% pluronic Acid. In general, the concentration range spans a range from 0.01-300 nM. Compounds were diluted 1:10 with extracellular solution within their respective cohort. DMSO (0.1% by volume) served as a vehicle control to ascertain assay performance.
(§1) Whole cell patch clamp recordings were conducted according to Sophion standard procedure for QPatch II®. Cells were held at a holding potential of −120 mV. A depolarizing step to 10 mV for 30 ms was applied to elicit inward Na^+ currents. Inter-sweep interval was 15 sec. Following establishment of the whole-cell configuration in extracellular solution, cells were washed twice in extracellular solution containing 0.1% DMSO and 0.03% pluronic acid to stabilize the baseline current. Compounds were then applied by the QPatch II system into each well in an ascending manner within cohort and the current was recorded for five minutes for each concentration. Percent of current remaining was determined by taking the average of the last 5 sweeps within each concentration and normalizing to the latest pre-compound saline period. The potency (IC50) values of the compounds were only assessed against resting state block. Wells whose initial sodium current magnitude were below 2 nA or whole cell resistance fell below 100 MΩ were excluded from analysis.
as §1, with “MO” for “MΩ”, “analysis. […]” for “analysis.”

[1] = P1, resting state block, Nav1.8/β1 HEK293 cells, holding potential −120 mV, first set of compounds, read-out: P1 (IC50, resting state block)
[2] = P1, resting state block, Nav1.8/β1 HEK293 cells, holding potential −120 mV, third set of compounds, read-out: P1 (IC50, resting state block)

T1 sequence (Q9Y5Y9 whole entry): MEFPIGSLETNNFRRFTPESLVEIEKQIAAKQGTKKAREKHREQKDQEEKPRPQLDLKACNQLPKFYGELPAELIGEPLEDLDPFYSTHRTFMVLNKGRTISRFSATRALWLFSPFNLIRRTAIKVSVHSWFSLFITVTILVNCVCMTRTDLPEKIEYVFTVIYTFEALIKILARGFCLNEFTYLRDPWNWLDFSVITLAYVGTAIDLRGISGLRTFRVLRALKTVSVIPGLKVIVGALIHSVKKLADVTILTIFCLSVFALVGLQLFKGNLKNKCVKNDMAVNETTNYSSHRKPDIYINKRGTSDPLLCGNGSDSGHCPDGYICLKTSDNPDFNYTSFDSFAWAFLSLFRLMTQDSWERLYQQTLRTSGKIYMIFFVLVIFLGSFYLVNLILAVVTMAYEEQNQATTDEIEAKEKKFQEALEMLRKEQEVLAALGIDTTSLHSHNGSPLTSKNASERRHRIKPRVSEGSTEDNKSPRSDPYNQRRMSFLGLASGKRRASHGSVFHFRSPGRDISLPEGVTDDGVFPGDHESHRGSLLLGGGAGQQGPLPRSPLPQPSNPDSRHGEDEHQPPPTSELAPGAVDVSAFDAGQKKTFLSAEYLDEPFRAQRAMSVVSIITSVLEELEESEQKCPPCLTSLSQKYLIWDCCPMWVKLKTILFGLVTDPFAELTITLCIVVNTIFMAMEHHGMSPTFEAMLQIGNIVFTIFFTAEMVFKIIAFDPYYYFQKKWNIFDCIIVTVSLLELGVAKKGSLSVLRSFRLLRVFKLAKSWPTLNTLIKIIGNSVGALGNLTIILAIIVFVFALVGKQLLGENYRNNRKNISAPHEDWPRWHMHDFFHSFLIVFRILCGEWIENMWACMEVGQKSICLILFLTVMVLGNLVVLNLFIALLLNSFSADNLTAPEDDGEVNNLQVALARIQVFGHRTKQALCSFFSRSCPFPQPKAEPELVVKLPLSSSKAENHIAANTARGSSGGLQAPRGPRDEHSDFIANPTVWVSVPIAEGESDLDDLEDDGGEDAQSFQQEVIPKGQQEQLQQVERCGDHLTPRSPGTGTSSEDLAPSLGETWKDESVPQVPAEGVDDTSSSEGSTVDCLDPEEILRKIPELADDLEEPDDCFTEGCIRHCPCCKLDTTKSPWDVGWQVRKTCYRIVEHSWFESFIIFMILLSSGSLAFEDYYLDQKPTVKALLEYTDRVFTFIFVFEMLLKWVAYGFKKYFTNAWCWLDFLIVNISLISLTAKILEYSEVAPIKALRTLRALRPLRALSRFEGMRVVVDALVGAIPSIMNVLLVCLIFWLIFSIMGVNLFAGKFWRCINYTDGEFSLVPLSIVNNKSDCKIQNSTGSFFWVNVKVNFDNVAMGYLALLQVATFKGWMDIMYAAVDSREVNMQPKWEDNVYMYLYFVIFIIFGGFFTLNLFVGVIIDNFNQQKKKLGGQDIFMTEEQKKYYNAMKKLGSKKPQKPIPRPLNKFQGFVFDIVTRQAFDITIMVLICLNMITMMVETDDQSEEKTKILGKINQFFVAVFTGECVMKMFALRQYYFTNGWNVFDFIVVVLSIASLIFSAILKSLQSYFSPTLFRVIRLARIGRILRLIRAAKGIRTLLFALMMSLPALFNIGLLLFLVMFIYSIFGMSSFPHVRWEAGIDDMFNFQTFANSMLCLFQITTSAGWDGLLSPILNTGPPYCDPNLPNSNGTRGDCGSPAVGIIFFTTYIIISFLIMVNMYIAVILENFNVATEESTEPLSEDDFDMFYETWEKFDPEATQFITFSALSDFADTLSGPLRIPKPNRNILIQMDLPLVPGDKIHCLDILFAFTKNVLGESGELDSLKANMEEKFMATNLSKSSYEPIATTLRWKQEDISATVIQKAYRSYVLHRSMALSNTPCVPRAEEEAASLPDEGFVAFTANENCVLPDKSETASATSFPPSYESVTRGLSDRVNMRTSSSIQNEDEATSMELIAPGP
T1 sequence (Q07699 19-218 partner): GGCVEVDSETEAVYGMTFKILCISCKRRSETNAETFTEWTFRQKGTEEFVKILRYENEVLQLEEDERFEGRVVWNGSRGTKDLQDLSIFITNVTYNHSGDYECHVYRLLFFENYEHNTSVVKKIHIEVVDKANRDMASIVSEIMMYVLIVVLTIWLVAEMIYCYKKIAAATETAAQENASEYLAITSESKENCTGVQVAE

| IC50 [nM] | Structure (SMILES) | other results |
| --- | --- | --- |
| > 200 | Cc1nc(F)ccc1Oc1ncc(C(F)(F)F)c(C)c1C(=O)N(C)c1cccc([S@@](C)(=N)=O)c1 [Example 47C, (S)-2-((6-fluoro-2-methylpyridin-3-yl)oxy)-N,4-dimethyl-N-(3-(S-methylsulfonimidoyl)phenyl)-5-(trifluoromethyl)nicotinamide] |  |
| 5 to 50 | CNCCCS(=O)(=O)c1cccc(NC(=O)c2c(Oc3ccc(F)nc3C)ncc(C(F)(F)F)c2C)c1 [Example 71C] |  |
| 5 to 50 | COc1cc(C#N)ccc1Oc1ncc(C(F)(F)F)c(C)c1C(=O)Nc1cccc([S@](=N)(=O)CCCO)c1 [Example 57C] |  |
| 100 to 200 | Cc1cc(F)ncc1Oc1cc(C(F)(F)F)c(Cl)cc1C(=O)Nc1ccc(F)c([S@](C)(=N)=O)c1 [Example 24A] |  |
| 5 to 50 | CCC(N)(CC)CCS(=N)(=O)c1cccc(NC(=O)c2c(Oc3ccc(F)nc3C)ncc(C(F)(F)F)c2C)c1 (centres unmarked) [Example 41C, N-(3-(3-amino-3-ethylpentylsulfonimidoyl)phenyl)-2-((6-fluoro-2-methylpyridin-3-yl)oxy)-4-methyl-5-(trifluoromethyl)nicotinamide] |  |
| < 5 | CNCCCS(=N)(=O)c1cccc(NC(=O)c2c(Oc3ccc(C#N)cc3OC)ncc(C(F)(F)F)c2C)c1 (centres unmarked) [Example 60C] |  |
| > 200 | Cc1nc(F)ccc1Oc1ncc(C(F)(F)F)c(C)c1C(=O)Nc1cc(S(=N)(=O)CCCO)ccn1 (centres unmarked) [Example 49C] |  |
| > 200 | Cc1nc(F)ccc1Oc1ncc(C(F)(F)F)c(C)c1C(=O)N[C@H]1C[C@@H](C(N)=O)C1 [Example 85C] |  |
| 5 to 50 | CNCCCS(=N)(=O)c1cccc(NC(=O)c2c(Oc3ccc(F)nc3C)ncc(C(F)(F)F)c2C)c1 (centres unmarked) [Example 74C] |  |
| 5 to 50 | Cc1nc(F)ccc1Oc1ncc(C(F)(F)F)c(C)c1C(=O)Nc1cccc([S@](=N)(=O)CCN(C)C)c1 [Example 76C] |  |
| 5 to 50 | Cc1nc(F)ccc1Oc1ncc(C(F)(F)F)c(C)c1C(=O)Nc1cccc([S@]2(=O)=NCCC2)c1 [Example 79C] |  |
|  | Cc1cc(F)ncc1Oc1cc(C(F)(F)F)c(Cl)cc1C(=O)Nc1ccnc([S@](C)(=N)=O)c1 [Example 20A] | IC50 [1]: 100 to 200 nM |
|  | Cc1nc(F)ccc1Oc1cc(C(F)(F)F)c(Cl)cc1C(=O)Nc1ccnc([S@@](C)(=N)=O)c1 [Example 77C] | IC50 [2]: > 200 nM |
| 5 to 50 | CNC(C)(C)CS(=N)(=O)c1cccc(NC(=O)c2c(Oc3ccc(F)nc3C)ncc(C(F)(F)F)c2C)c1 (centres unmarked) [Example 51C] |  |
| 5 to 50 | COc1cc(C#N)ccc1Oc1ncc(C(F)(F)F)c(C)c1C(=O)Nc1cccc(S(=N)(=O)CCCN(C)C)c1 (centres unmarked) [Example 59C] |  |
| 100 to 200 | Cc1nc(F)ccc1Oc1ncc(C(F)(F)F)c(C)c1C(=O)Nc1cccc([S@](=N)(=O)CCCO)c1 [Example 69C] |  |
| 100 to 200 | Cc1nc(F)ccc1Oc1cc(C(F)(F)F)ccc1C(=O)Nc1ccc(F)c([S@](C)(=N)=O)c1 [Example 30A] |  |
|  | Cc1nc(F)ccc1Oc1ncc(C(F)(F)F)c(C)c1C(=O)Nc1cccc(S2(=O)=NC(=O)CC2)c1 (single isomer, unassigned) [Example 31D, 2-((6-fluoro-2-methylpyridin-3-yl)oxy)-4-methyl-N-(3-(1-oxido-3-oxo-4,5-dihydro-3H-1l6-isothiazol-1-yl)phenyl)-5-(trifluoromethyl)nicotinamide] | IC50 (P1, resting state block, Nav1.8/β1 HEK293 cells, holding potential −120 mV, fourth set of compounds, read-out: P1 (IC50, resting state block)): 50 to 100 nM |
| > 200 | Cc1nc(F)ccc1Oc1ncc(C(F)(F)F)c(C)c1C(=O)Nc1cc(S(C)(=N)=O)ccn1 (centres unmarked) [Example 63C] |  |
|  | CNCC[S@@](=N)(=O)c1cccc(NC(=O)c2c(Oc3ccc(F)nc3C)ncc(C(F)(F)F)c2C)c1 [Example 64C] | IC50 [2]: 5 to 50 nM |
|  | COc1cc(C#N)ccc1Oc1cc(C(F)(F)F)c(Cl)cc1C(=O)Nc1ccnc([S@@](C)(=N)=O)c1 [Example 15A] | IC50 [1]: 5 to 50 nM |

| IC50 [nM] | Structure (SMILES) | other results |
| --- | --- | --- |
|  | COc1cc(Br)ccc1Oc1cc(C(F)(F)F)c(Cl)cc1C(=O)Nc1ccnc([S@](C)(=N)=O)c1 [Example 11A, (R)-2-(4-bromo-2-methoxyphenoxy)-5-chloro-N-(2-(S-methylsulfonimidoyl)pyridin-4-yl)-4-(trifluoromethyl)benzamide] | IC50 [1]: < 5 nM |
| 5 to 50 | COc1cc(C#N)ccc1Oc1cc(C(F)(F)F)c(Cl)cc1C(=O)Nc1ccnc([S@](C)(=N)=O)c1 [Example 12A, (R)-5-chloro-2-(4-cyano-2-methoxyphenoxy)-N-(2-(S-methylsulfonimidoyl)pyridin-4-yl)-4-(trifluoromethyl)benzamide] |  |
| 5 to 50 | Cc1nc(F)ccc1Oc1ncc(C(F)(F)F)c(C)c1C(=O)Nc1cccc([S@](=N)(=O)CCO)c1 [Example 67C] |  |
| 50 to 100 | Cc1nc(F)ccc1Oc1ncc(C(F)(F)F)c(C)c1C(=O)Nc1cccc([S@@](=N)(=O)CCO)c1 [Example 66C] |  |
| 100 to 200 | Cc1nc(F)ccc1Oc1ncc(C(F)(F)F)c(C)c1C(=O)Nc1cncc([S@](C)(=N)=O)c1 [Example 61C] |  |
|  | COc1cc(Br)ccc1Oc1cc(C(F)(F)F)c(Cl)cc1C(=O)Nc1ccnc([S@@](C)(=N)=O)c1 [Example 16A] | IC50 [1]: < 5 nM |
|  | Cc1nc(F)ccc1Oc1cc(C(F)(F)F)ccc1C(=O)Nc1ccnc([S@@](C)(=N)=O)c1 [Example 18A] | IC50 [1]: > 200 nM |
|  | Cc1cc(F)ncc1Oc1cc(C(F)(F)F)c(Cl)cc1C(=O)Nc1cccc([S@](C)(=N)=O)c1 [Example 22A] | IC50 [1]: 50 to 100 nM |
| 5 to 50 | CNCC[S@](=N)(=O)c1cccc(NC(=O)c2c(Oc3ccc(F)nc3C)ncc(C(F)(F)F)c2C)c1 [Example 65C] |  |
| > 200 | Cc1nc(F)ccc1Oc1cc(C(F)(F)F)ccc1C(=O)Nc1ccc(F)c([S@@](C)(=N)=O)c1 [Example 29A] |  |
| 5 to 50 | CNCCCS(=N)(=O)c1cccc(NC(=O)c2c(Oc3ccc(F)cc3C)ncc(C(F)(F)F)c2C)c1 (centres unmarked) [Example 56C] |  |
|  | Cc1cc(F)ncc1Oc1cc(C(F)(F)F)c(Cl)cc1C(=O)Nc1cccc([S@@](C)(=N)=O)c1 [Example 21A] | IC50 [1]: 100 to 200 nM |
| 5 to 50 | CNCCS(=N)(=O)c1cccc(NC(=O)c2c(Oc3ccc(F)nc3C)ncc(C(F)(F)F)c2C)c1 (centres unmarked) [Example 78C] |  |
| 5 to 50 | COc1cc(C#N)ccc1Oc1ncc(C(F)(F)F)c(C)c1C(=O)Nc1cccc([S@@](=N)(=O)CCCO)c1 [Example 58C] |  |
| > 200 | Cc1c(C(F)(F)F)cnc(Oc2ccc(F)nc2CO)c1C(=O)Nc1cccc([S@](C)(=N)=O)c1 [Example 89C] |  |
| > 200 | Cc1nc(F)ccc1Oc1ncc(C(F)(F)F)c(C)c1C(=O)Nc1cccc(S(=N)(=O)CCC(C)(C)O)c1 (centres unmarked) [Example 42C, 2-((6-fluoro-2-methylpyridin-3-yl)oxy)-N-(3-(3-hydroxy-3-methylbutylsulfonimidoyl)phenyl)-4-methyl-5-(trifluoromethyl)nicotinamide] |  |
| 5 to 50 | Cc1nc(F)ccc1Oc1ncc(C(F)(F)F)c(C)c1C(=O)Nc1cccc([S@@](=N)(=O)CCN(C)C)c1 [Example 75C] |  |
| > 200 | Cc1nc(F)ccc1Oc1ncc(C(F)(F)F)c(C)c1C(=O)Nc1cncc([S@@](C)(=N)=O)c1 [Example 62C] |  |
| 5 to 50 | Cc1cc(F)ccc1Oc1ncc(C(F)(F)F)c(C)c1C(=O)Nc1cccc(S(=N)(=O)CCCN(C)C)c1 (centres unmarked) [Example 55C] |  |
| > 200 | Cc1nc(F)ccc1Oc1ncc(C(F)(F)F)c(C)c1C(=O)N(C)c1cccc([S@](C)(=N)=O)c1 [Example 46C, (R)-2-((6-fluoro-2-methylpyridin-3-yl)oxy)-N,4-dimethyl-N-(3-(S-methylsulfonimidoyl)phenyl)-5-(trifluoromethyl)nicotinamide] |  |
